Results on 18 compounds are retold here after US20140249135A1, “PIM KINASE INHIBITORS AND METHODS OF THEIR USE” (NOVARTIS AG, priority 2007, published 2014).

One experiment has as its target Pim3 kinase (Homo sapiens, UniProt Q86V86). Put plainly: Pim3 ATP depletion assay. The experiment is classed as biochemical.
In another experiment the target is Pim2 kinase (Homo sapiens, UniProt Q9P1W9). Put plainly: Pim2 ATP depletion assay.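 Note: Luciferase-based luminescent readout of ATP remaining after PIM2 phosphorylates a BAD peptide, final 5 nM enzyme, 4 µM ATP, 10 µM peptide, 2.5% DMSO, run to roughly half ATP consumption.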 The experiment is classed as biochemical.
Pim2 kinase, sequence (Q9P1W9 whole entry): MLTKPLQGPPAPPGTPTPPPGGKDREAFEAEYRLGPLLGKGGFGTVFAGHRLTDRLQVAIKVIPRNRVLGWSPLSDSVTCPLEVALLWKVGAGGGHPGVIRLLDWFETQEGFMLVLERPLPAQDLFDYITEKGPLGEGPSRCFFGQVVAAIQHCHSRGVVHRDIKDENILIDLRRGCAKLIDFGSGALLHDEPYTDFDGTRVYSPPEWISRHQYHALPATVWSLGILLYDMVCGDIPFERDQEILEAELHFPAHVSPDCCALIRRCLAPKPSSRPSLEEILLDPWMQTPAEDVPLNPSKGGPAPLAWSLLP
For the next experiment, the target named is Pim1 kinase (Homo sapiens, UniProt P11309). The experiment is described as follows: Pim1 ATP depletion assay.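 Note: Luciferase-luciferin luminescence readout of residual ATP after PIM1 transfers phosphate to a peptide substrate, 40 µM ATP added, reaction run to roughly half ATP consumption.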 The experiment is classed as biochemical. Conditions: Pim1 ATP depletion assay.
Pim1 kinase, sequence (P11309 whole entry): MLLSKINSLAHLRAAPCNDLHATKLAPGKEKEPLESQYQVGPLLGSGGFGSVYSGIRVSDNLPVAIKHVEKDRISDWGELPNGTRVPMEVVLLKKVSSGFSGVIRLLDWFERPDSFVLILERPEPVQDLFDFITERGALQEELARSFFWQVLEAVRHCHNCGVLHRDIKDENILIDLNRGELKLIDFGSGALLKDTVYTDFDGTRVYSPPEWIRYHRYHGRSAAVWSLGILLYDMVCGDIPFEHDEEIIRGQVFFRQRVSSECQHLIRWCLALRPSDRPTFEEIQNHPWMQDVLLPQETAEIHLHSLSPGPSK
The target of a further experiment is KDR kinase (Homo sapiens, UniProt P35968). The experiment is described as follows: KDR AlphaScreen assay. The conditions noted are these: KDR IC50 (μM). A general note: Alpha assays give light when donor and acceptor beads are brought close together.
KDR kinase, sequence (P35968 20-1356): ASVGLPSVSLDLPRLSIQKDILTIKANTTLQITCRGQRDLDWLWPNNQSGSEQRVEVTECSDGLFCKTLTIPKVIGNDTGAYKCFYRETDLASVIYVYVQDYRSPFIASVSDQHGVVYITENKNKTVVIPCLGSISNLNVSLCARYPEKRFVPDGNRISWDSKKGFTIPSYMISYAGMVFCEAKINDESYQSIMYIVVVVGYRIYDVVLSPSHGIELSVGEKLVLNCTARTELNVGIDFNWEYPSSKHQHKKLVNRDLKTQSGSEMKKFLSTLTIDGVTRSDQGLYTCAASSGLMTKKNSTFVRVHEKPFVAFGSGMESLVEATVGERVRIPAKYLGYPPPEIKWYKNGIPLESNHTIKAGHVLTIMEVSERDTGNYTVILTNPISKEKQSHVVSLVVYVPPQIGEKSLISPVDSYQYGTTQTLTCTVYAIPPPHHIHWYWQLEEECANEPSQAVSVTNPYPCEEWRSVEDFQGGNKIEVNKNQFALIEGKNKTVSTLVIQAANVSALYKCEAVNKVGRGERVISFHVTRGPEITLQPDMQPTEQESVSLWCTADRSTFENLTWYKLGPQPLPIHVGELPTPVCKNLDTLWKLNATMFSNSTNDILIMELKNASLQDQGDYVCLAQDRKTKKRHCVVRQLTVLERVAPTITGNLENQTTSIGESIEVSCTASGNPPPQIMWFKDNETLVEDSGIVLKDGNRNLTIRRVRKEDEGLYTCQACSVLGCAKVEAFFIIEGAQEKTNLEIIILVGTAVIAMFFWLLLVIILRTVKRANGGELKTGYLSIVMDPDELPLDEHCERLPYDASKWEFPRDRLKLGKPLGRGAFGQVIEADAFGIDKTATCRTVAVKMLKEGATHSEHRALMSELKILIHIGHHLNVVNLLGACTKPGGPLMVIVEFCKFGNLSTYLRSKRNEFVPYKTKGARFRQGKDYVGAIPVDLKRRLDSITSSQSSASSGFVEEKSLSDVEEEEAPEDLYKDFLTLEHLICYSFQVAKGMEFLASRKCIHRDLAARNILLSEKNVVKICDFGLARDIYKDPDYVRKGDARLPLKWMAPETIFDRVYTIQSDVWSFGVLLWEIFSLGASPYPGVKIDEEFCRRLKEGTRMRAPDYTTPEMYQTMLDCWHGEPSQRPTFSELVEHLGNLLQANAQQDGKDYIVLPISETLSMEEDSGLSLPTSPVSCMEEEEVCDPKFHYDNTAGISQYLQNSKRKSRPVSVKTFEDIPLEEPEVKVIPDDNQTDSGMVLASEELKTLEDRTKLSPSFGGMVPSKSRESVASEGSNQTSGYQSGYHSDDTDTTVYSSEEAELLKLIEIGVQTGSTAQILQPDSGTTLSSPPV
For experiment [1], the target named is T1, human full length PKCE enzyme (Homo sapiens, UniProt Q02156).
T1 construct: human full length PKCE enzyme purchased from InVitrogen; purchased InVitrogen
T1 sequence (Q02156 1-737): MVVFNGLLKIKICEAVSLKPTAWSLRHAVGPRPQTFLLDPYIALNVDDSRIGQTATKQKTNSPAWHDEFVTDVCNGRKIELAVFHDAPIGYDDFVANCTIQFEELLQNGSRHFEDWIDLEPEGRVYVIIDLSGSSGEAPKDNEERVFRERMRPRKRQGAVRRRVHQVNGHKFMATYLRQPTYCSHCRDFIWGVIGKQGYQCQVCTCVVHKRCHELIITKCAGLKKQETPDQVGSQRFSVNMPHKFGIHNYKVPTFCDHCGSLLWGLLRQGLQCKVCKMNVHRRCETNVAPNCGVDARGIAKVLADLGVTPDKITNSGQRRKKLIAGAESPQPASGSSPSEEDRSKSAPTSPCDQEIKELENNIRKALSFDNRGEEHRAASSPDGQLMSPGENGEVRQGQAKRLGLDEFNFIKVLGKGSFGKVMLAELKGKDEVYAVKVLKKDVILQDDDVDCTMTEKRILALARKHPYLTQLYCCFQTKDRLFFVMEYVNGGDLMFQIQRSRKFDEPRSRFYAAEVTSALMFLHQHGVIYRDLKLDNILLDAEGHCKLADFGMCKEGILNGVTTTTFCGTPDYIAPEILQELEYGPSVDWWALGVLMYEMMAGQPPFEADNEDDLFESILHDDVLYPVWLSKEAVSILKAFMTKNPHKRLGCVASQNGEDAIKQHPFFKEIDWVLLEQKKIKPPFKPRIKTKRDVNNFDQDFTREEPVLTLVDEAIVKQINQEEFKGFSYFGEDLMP
Put plainly: In vitro PKCE assay. The experiment is classed as biochemical. Conditions: 10 nM enzyme, 40 uM peptide substrate, 20 uM ATP, KinaseGlo Plus readout; read-out: PKCε IC50. In general terms: Kinase-Glo reads ATP consumption through a luciferase reaction.

Each structure is given as a SMILES string. Like-named read-outs stand apart in the source and are kept apart here.

Regarding `CC(C)NC(=O)c1ccc(F)c(-c2ccc(N)c(C(=O)Nc3cnccc3N3CCCC(O)(C(F)(F)F)C3)n2)c1` (stereo not drawn) [Example 163, 3-Amino-6-(2-fluoro-5-isopropylcarbamoyl-phenyl)-pyridine-2-carboxylic acid (3-hydroxy-3-trifluoromethyl-3,4,5,6-tetrahydro-2H-[1,4′]bi-pyridinyl-3′-yl)-amide], the half-maximal inhibitory concentration (IC50) (as a rule, the concentration at which inhibition is half-maximal) on Pim3 kinase (read-out: IC50 (μM) PIM3) is less than 1 µM; on Pim2 kinase (read-out: IC50 (μM) PIM2) it was less than 1 µM; on Pim1 kinase (read-out: IC50 (μM) PIM1), less than 1 µM; against KDR kinase, 10 to 25 µM.
For the compound `Nc1ccc(-c2ccccc2F)nc1C(=O)Nc1cnccc1N1CCCC(O)(C(F)(F)F)C1` (stereo not drawn) [Example 164, 3-Amino-6-(2-fluoro-phenyl)-pyridine-2-carboxylic acid (3-hydroxy-3-trifluoromethyl-3,4,5,6-tetrahydro-2H-[1,4′]bi-pyridinyl-3′-yl)-amide], the concentration for half-maximal inhibition (IC50) on Pim3 kinase (read-out: IC50 (μM) PIM3) was less than 1 µM; on Pim2 kinase (read-out: IC50 (μM) PIM2), less than 1 µM; on Pim1 kinase (read-out: IC50 (μM) PIM1) it was less than 1 µM; at KDR kinase it was 10 to 25 µM.
Consider `Nc1cnc(-c2c(F)cccc2F)nc1C(=O)Nc1cnccc1N1CCCC(O)(C(F)(F)F)C1` (stereo not drawn) [Example 165, 5-Amino-2-(2,6-difluoro-phenyl)-pyrimidine-4-carboxylic acid (3-hydroxy-3-trifluoromethyl-3,4,5,6-tetra-hydro-2H-[1,4′]bipyridinyl-3′-yl)-amide], for which the 50% inhibitory concentration (IC50) on Pim3 kinase (read-out: IC50 (μM) PIM3) is less than 1 µM; on Pim2 kinase (read-out: IC50 (μM) PIM2) it was less than 1 µM; at Pim1 kinase (read-out: IC50 (μM) PIM1) it was less than 1 µM; against KDR kinase it was 10 to 25 µM.
For the compound `Nc1cnc(-c2ccccc2F)nc1C(=O)Nc1cnccc1N1CCCC(O)(C(F)(F)F)C1` (stereo not drawn) [Example 166, 5-Amino-2-(2-fluoro-phenyl)-pyrimidine-4-carboxylic acid (3-hydroxy-3-trifluoromethyl-3,4,5,6-tetrahydro-2H-[1,4′]bi-pyridinyl-3′-yl)-amide], the IC50 on Pim3 kinase (read-out: IC50 (μM) PIM3) is less than 1 µM; at Pim2 kinase (read-out: IC50 (μM) PIM2) it was less than 1 µM; at Pim1 kinase (read-out: IC50 (μM) PIM1), less than 1 µM; against KDR kinase, 10 to 25 µM.
Consider `N[C@H]1CCCN(c2ccncc2NC(=O)c2ccnc(-c3c(F)cccc3F)n2)C1` [Example 249, N-{4-[(3S)-3-aminopiperidin-1-yl]pyridin-3-yl}-2-(2,6-difluorophenyl)pyrimidine-4-carboxamide N-{4-[(3S)-3-aminopiperidin-1-yl]pyridin-3-yl}-2-(2,6-difluorophenyl)-pyrimidine-4-carboxamide], for which the IC50 was less than 1 µM on Pim3 kinase (read-out: IC50 (μM) PIM3), less than 1 µM at Pim2 kinase (read-out: IC50 (μM) PIM2), less than 1 µM on Pim1 kinase (read-out: IC50 (μM) PIM1) and 10 to 25 µM on KDR kinase.
For the compound `CC1(N)CCCN(c2ccncc2NC(=O)c2nc(-c3ccccc3)ncc2N)C1` (stereo not drawn) [Example 261, 5-Amino-2-phenyl-pyrimidine-4-carboxylic acid (3-amino-3-methyl-3,4,5,6-tetrahydro-2H-[1,4′]bipyridinyl-3′-yl)-amide], the concentration for half-maximal inhibition (IC50) at Pim3 kinase (read-out: IC50 (μM) PIM3) is less than 1 µM; at Pim2 kinase (read-out: IC50 (μM) PIM2) it was less than 1 µM; at Pim1 kinase (read-out: IC50 (μM) PIM1), less than 1 µM; at KDR kinase it was 1 to 10 µM.
Consider `Nc1cc(-c2ccccc2)cnc1C(=O)Nc1cnccc1N1CCC[C@H](N)C1` [Example 264, 3-Amino-5-phenyl-pyridine-2-carboxylic acid (3-amino-3,4,5,6-tetrahydro-2H-[1,4′]bipyridinyl-3′-yl)-amide], for which the half-inhibitory concentration (IC50) on Pim3 kinase (read-out: IC50 (μM) PIM3), at Pim2 kinase (read-out: IC50 (μM) PIM2), on Pim1 kinase (read-out: IC50 (μM) PIM1) and on KDR kinase was less than 1 µM in each case.
With `Nc1cnc(-c2ccccc2)nc1C(=O)Nc1cnccc1N1CCC[C@H](N)C1` [Example 265, 5-Amino-2-phenyl-pyrimidine-4-carboxylic acid (3-amino-3,4,5,6-tetrahydro-2H-[1,4′]bipyridinyl-3′-yl)-amide], the IC50 is less than 1 µM at Pim3 kinase (read-out: IC50 (μM) PIM3), less than 1 µM at Pim2 kinase (read-out: IC50 (μM) PIM2), less than 1 µM on Pim1 kinase (read-out: IC50 (μM) PIM1) and 10 to 25 µM against KDR kinase.
With `Cc1nc(N)cc(-c2ccncc2NC(=O)c2nc(-c3ccccc3)ncc2N)n1` [Example 268, 5-Amino-2-phenyl-pyrimidine-4-carboxylic acid [4-(6-amino-2-methyl-pyrimidin-4-yl)-pyridin-3-yl]-amide], the IC50 at Pim3 kinase (read-out: IC50 (μM) PIM3) was less than 1 µM; on Pim2 kinase (read-out: IC50 (μM) PIM2), less than 1 µM; at Pim1 kinase (read-out: IC50 (μM) PIM1) it was less than 1 µM; on KDR kinase, 1 to 10 µM.
Regarding `CSc1nc(N)cc(-c2ccncc2NC(=O)c2nc(-c3c(F)cccc3F)ccc2N)n1` [Example 275, 3-Amino-6-(2,6-difluoro-phenyl)-pyridine-2-carboxylic acid [4-(6-amino-2-methylsulfanyl-pyrimidin-4-yl)-pyridin-3-yl]-amide], the concentration for half-maximal inhibition (IC50) on Pim3 kinase (read-out: IC50 (μM) PIM3) is less than 1 µM; on Pim2 kinase (read-out: IC50 (μM) PIM2), less than 1 µM; at Pim1 kinase (read-out: IC50 (μM) PIM1), less than 1 µM; at KDR kinase it was 10 to 25 µM.
Consider `Nc1ccc(-c2scc3c2OCCO3)nc1C(=O)Nc1cnccc1N1CCC[C@H](N)C1` [Example 447, 3-Amino-6-(2,3-dihydro-thieno[3,4-b][1,4]dioxin-5-yl)-pyridine-2-carboxylic acid (3-amino-3,4,5,6-tetrahydro-2H-[1,4′]bipyridinyl-3′-yl)-amide], for which the IC50 was less than 1 µM on Pim3 kinase (read-out: IC50 (μM) PIM3), less than 1 µM on Pim2 kinase (read-out: IC50 (μM) PIM2), less than 1 µM at Pim1 kinase (read-out: IC50 (μM) PIM1) and 10 to 25 µM against KDR kinase.
With `N[C@H]1CCCN(c2ccncc2NC(=O)c2cccc(-c3ccccc3F)n2)C1` [Example 455, 6-(2-Fluoro-phenyl)-pyridine-2-carboxylic acid (3-amino-3,4,5,6-tetrahydro-2H-[1,4′]bipyridinyl-3′-yl)-amide], the 50% inhibitory concentration (IC50) was less than 1 µM at Pim3 kinase (read-out: IC50 (μM) PIM3), less than 1 µM at Pim2 kinase (read-out: IC50 (μM) PIM2), less than 1 µM at Pim1 kinase (read-out: IC50 (μM) PIM1) and 10 to 25 µM against KDR kinase.
Turning to `N[C@H]1CCCN(c2ccncc2NC(=O)c2cccc(-c3ccccc3)n2)C1` [Example 487, 6-Phenyl-pyridine-2-carboxylic acid (3-amino-3,4,5,6-tetrahydro-2H-[1,4′]bipyridinyl-3′-yl)-amide], the IC50 at Pim3 kinase (read-out: IC50 (μM) PIM3) was less than 1 µM; on Pim2 kinase (read-out: IC50 (μM) PIM2), less than 1 µM; at Pim1 kinase (read-out: IC50 (μM) PIM1), less than 1 µM; against KDR kinase, 10 to 25 µM.
`Nc1cc(F)c(-c2c(F)ccc(OCc3ccccc3)c2F)nc1C(=O)Nc1cnccc1N1CCC[C@H](N)C1` [Example 505, 3-Amino-6-(3-benzyloxy-2,6-difluoro-phenyl)-5-fluoro-pyridine-2-carboxylic acid (3-amino-3,4,5,6-tetrahydro-2H-[1,4′]bipyridinyl-3′-yl)-amide]: the IC50 at Pim3 kinase (read-out: IC50 (μM) PIM3) was less than 1 µM; at Pim2 kinase (read-out: IC50 (μM) PIM2), less than 1 µM; on Pim1 kinase (read-out: IC50 (μM) PIM1), less than 1 µM; against KDR kinase, 10 to 25 µM.
For the compound `Nc1ccc(-c2cnc(N)c(OCC(F)(F)F)n2)nc1C(=O)Nc1cnccc1N1CCC[C@H](N)C1` [Example 519, 3-Amino-6-[5-amino-6-(2,2,2-trifluoro-ethoxy)-pyrazin-2-yl]-pyridine-2-carboxylic acid (3-amino-3,4,5,6-tetrahydro-2H-[1,4′]bipyridinyl-3′-yl)-amide], the concentration for half-maximal inhibition (IC50) at Pim3 kinase (read-out: IC50 (μM) PIM3) was less than 1 µM; at Pim2 kinase (read-out: IC50 (μM) PIM2), less than 1 µM; on Pim1 kinase (read-out: IC50 (μM) PIM1) it was less than 1 µM; at KDR kinase, 10 to 25 µM.
With `Nc1ccc(-c2cncc(OCC3CC3)n2)nc1C(=O)Nc1cnccc1N1CCC[C@H](N)C1` [Example 521, 3-Amino-6-(6-cyclopropylmethoxy-pyrazin-2-yl)-pyridine-2-carboxylic acid (3-amino-3,4,5,6-tetrahydro-2H-[1,4′]bipyridinyl-3′-yl)-amide], the IC50 was less than 1 µM on Pim3 kinase (read-out: IC50 (μM) PIM3), less than 1 µM on Pim2 kinase (read-out: IC50 (μM) PIM2), less than 1 µM on Pim1 kinase (read-out: IC50 (μM) PIM1) and 1 to 10 µM on KDR kinase.
On to `Nc1ncc(-c2ccccc2Cl)nc1C(=O)Nc1[nH]c(=O)ncc1N1CCCCC1` [Example 595, 3-amino-6-(2-chloro-phenyl)-pyrazine-2-carboxylic acid (2-oxo-5-piperidin-1-yl-2,3-dihydro-pyrimidin-4-yl)-amide], for which the concentration for half-maximal inhibition (IC50) at Pim3 kinase (read-out: PIM3 IC50) was less than 1 µM; on Pim2 kinase (read-out: PIM2 IC50), less than 1 µM; in experiment [1], greater than 25 µM; on Pim1 kinase (read-out: PIM1 IC50) it was less than 1 µM.
Consider `Nc1ncc(-c2ccccc2OC(F)(F)F)nc1C(=O)Nc1[nH]c(=O)ncc1N1CCCCC1` [Example 596, 3-amino-6-(2-trifluoromethoxy-phenyl)-pyrazine-2-carboxylic acid (2-oxo-5-piperidin-1-yl-2,3-dihydro-pyrimidin-4-yl)-amide], for which the half-maximal inhibitory concentration (IC50) on Pim3 kinase (read-out: PIM3 IC50) was less than 1 µM; on Pim2 kinase (read-out: PIM2 IC50) it was less than 1 µM; in experiment [1], greater than 25 µM; at Pim1 kinase (read-out: PIM1 IC50), less than 1 µM.
